Data taken from the NIST ThermoML archive (doi:10.1016/j.jct.2008.02.004).
Numbers after ± are expanded uncertainties.

Test: molar enthalpy of vaporization or sublimation
Settings: 298.15 K; Liquid; calvet microcalorimetry

molar enthalpy [kcal/mol] | Compound
13.4 ± 0.574 | Cc1ccc(C=O)s1 [5-methyl-2-thiophenecarbaldehyde]
13.8 ± 0.621 | Cc1ccsc1C=O [3-methyl-2-thiophenecarboxaldehyde]

More lines, now with the values behind:

Compound | molar enthalpy [kcal/mol]
CCc1ccc(C=O)s1 [2-thiophenecarboxaldehyde, 5-ethyl-] | 14.9 ± 0.621
O=Cc1ccsc1 [3-formylthiophene] | 12.6 ± 0.574
O=Cc1cccs1 [2-thiophenealdehyde] | 13.1 ± 0.526
